Reference: PubChem BioAssay (NCI)
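Following 48 hours of exposure in 96-well plates, responses at five concentrations were used to interpolate endpoints linearly. The concentration for full growth arrest is given as TGI.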

Key:
Assay in all cases: DTP human tumour cell line panel, 48 h
[1] = system: 786-0 renal
[2] = system: A498 renal
[3] = system: A549 NSCLC
[4] = system: ACHN renal
[5] = system: BT-549 breast
[6] = system: CAKI-1 renal
[7] = system: CCRF-CEM leukemia
[8] = system: COLO 205 colon
[9] = system: DU-145 prostate
[10] = system: EKVX NSCLC
[11] = system: HCC-2998 colon
[12] = system: HCT-116 colon
[13] = system: HCT-15 colon
[14] = system: HL-60(TB) leukemia
[15] = system: HOP-62 NSCLC
[16] = system: HOP-92 NSCLC
[17] = system: HS 578T breast
[18] = system: HT29 colon
[19] = system: IGROV1 ovarian
[20] = system: K-562 leukemia
[21] = system: KM12 colon
[22] = system: LOX IMVI melanoma
[23] = system: M14 melanoma
[24] = system: MALME-3M melanoma
[25] = system: MCF7 breast
[26] = system: MDA-MB-231 breast
[27] = system: MDA-MB-435
[28] = system: MDA-N
[29] = system: MOLT-4 leukemia
[30] = system: NCI-H226 lung
[31] = system: NCI-H23 lung
[32] = system: NCI-H460 lung
[33] = system: NCI-H522 lung
[34] = system: NCI/ADR-RES ovarian
[35] = system: OVCAR-3 ovarian
[36] = system: OVCAR-4 ovarian
[37] = system: OVCAR-5 ovarian
[38] = system: OVCAR-8 ovarian
[39] = system: PC-3 prostate
[40] = system: RPMI-8226 leukemia
[41] = system: RXF 393 renal
[42] = system: SF-268 CNS
[43] = system: SF-295 CNS
[44] = system: SF-539 CNS
[45] = system: SK-MEL-2 melanoma
[46] = system: SK-MEL-28 melanoma
[47] = system: SK-MEL-5 melanoma
[48] = system: SK-OV-3 ovarian
[49] = system: SN12C renal
[50] = system: SNB-19 CNS
[51] = system: SNB-75 CNS
[52] = system: SR leukemia
[53] = system: SW-620 colon
[54] = system: T-47D breast
[55] = system: TK-10 renal
[56] = system: U251 CNS
[57] = system: UACC-257 melanoma
[58] = system: UACC-62 melanoma
[59] = system: UO-31 renal

SMILES: CC(C)(Cl)C(Cl)CC/C(CBr)=C(\Cl)CCl (stereo not drawn)
- TGI [1]: 6.5 µM
- TGI [2]: 35.3 µM
- TGI [3]: 34.1 µM
- TGI [4]: 28.3 µM
- TGI [5]: 3.63 µM
- TGI [6]: 9.92 µM
- TGI [7]: 2.95 µM
- TGI [8]: 11.1 µM
- TGI [9]: 26.7 µM
- TGI [10]: 31.8 µM
- TGI [11]: 27.7 µM
- TGI [12]: 8.74 µM
- TGI [13]: 4.35 µM
- TGI [14]: 4.65 µM
- TGI [15]: 26 µM
- TGI [16]: 23.7 µM
- TGI [17]: 25.3 µM
- TGI [18]: 14.7 µM
- TGI [19]: 4.66 µM
- TGI [20]: 17.1 µM
- TGI [21]: 19.5 µM
- TGI [22]: 1.35 µM
- TGI [23]: 3.61 µM
- TGI [24]: 20.2 µM
- TGI [25]: 32.1 µM
- TGI [26]: 7.28 µM
- TGI [27]: 8.56 µM
- TGI [28]: 5.26 µM
- TGI [29]: 2.63 µM
- TGI [30]: 15.3 µM
- TGI [31]: 14.4 µM
- TGI [32]: 28 µM
- TGI [33]: 1.88 µM
- TGI [34]: 34 µM
- TGI [35]: 12.2 µM
- TGI [36]: 7.45 µM
- TGI [37]: 28.3 µM
- TGI [38]: 12.6 µM
- TGI [39]: 20 µM
- TGI [40]: 4.59 µM
- TGI [41]: 23 µM
- TGI [42]: 29.1 µM
- TGI [43]: 30.6 µM
- TGI [44]: 15.5 µM
- TGI [45]: 5.32 µM
- TGI [46]: 8.84 µM
- TGI [47]: 6.58 µM
- TGI [48]: 17.9 µM
- TGI [49]: 9.47 µM
- TGI [50]: 32.7 µM
- TGI [51]: 14.1 µM
- TGI [52]: 3.31 µM
- TGI [53]: 4.12 µM
- TGI [54]: 3.88 µM
- TGI [55]: 27.7 µM
- TGI [56]: 16.2 µM
- TGI [57]: 14 µM
- TGI [58]: 3.79 µM
- TGI [59]: 17 µM

SMILES: O=C1C[C@H](Sc2ccccc2)C2(OCCO2)[C@H]2ON3CCC[C@@H]3[C@@H]12
- TGI [1]: 4.98 µM
- TGI [2]: 27.9 µM
- TGI [3]: 13 µM
- TGI [4]: 5.55 µM
- TGI [5]: 16.2 µM
- TGI [6]: 7.13 µM
- TGI [7]: 0.829 µM
- TGI [8]: 5.31 µM
- TGI [9]: 6.95 µM
- TGI [10]: 9.64 µM
- TGI [11]: 6.69 µM
- TGI [12]: 2.88 µM
- TGI [13]: 4.42 µM
- TGI [14]: 3.67 µM
- TGI [15]: 5.29 µM
- TGI [16]: 3.92 µM
- TGI [17]: > 39 µM
- TGI [18]: 2.81 µM
- TGI [19]: 2.46 µM
- TGI [20]: 8.11 µM
- TGI [21]: 2.87 µM
- TGI [22]: 3.05 µM
- TGI [23]: 7.19 µM
- TGI [24]: 4.01 µM
- TGI [25]: 3.16 µM
- TGI [26]: 10.9 µM
- TGI [27]: 3.9 µM
- TGI [28]: 13.3 µM
- TGI [29]: 1.85 µM
- TGI [30]: 26.7 µM
- TGI [31]: 7.12 µM
- TGI [32]: 9.55 µM
- TGI [33]: 2.08 µM
- TGI [34]: 30.8 µM
- TGI [35]: 2.75 µM
- TGI [36]: 9.14 µM
- TGI [37]: 7.8 µM
- TGI [38]: 11.5 µM
- TGI [39]: 13 µM
- TGI [40]: 1.33 µM
- TGI [41]: 11 µM
- TGI [42]: 7.25 µM
- TGI [43]: 14.4 µM
- TGI [44]: 7.9 µM
- TGI [45]: 13.8 µM
- TGI [46]: 7.55 µM
- TGI [47]: 21.6 µM
- TGI [48]: 11.4 µM
- TGI [49]: 6.29 µM
- TGI [50]: 19.6 µM
- TGI [51]: 11.5 µM
- TGI [52]: 1.95 µM
- TGI [53]: 5.82 µM
- TGI [54]: 7.17 µM
- TGI [55]: 13.3 µM
- TGI [56]: 6.66 µM
- TGI [57]: 8.71 µM
- TGI [58]: 3.77 µM
- TGI [59]: 3.61 µM
